The source of these data is patent US20140107100A1, “Benzoxazepines as Inhibitors of PI3K/mTOR and Methods of Their Use and Manufacture” (EXELIXIS, INC., priority 2010, published 2014).

Structures are written as SMILES.

In this assay the target is mTOR/GbL/Raptor (mTORC1) (Homo sapiens, UniProt P42345). The experiment in a line: mTOR/GbL/Raptor (mTORC1) ELISA assay, phosphorylation of 4E-BP1. The note with it: 0.2 nM mTORC1, 40 uM ATP, 50 nM NHis-tagged 4E-BP1, 120 minutes; read-out: IC50 in this assay (mTORC1 ELISA). The class given is biochemical. The essentials:
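Phospho-4E-BP1 was quantified by luminescent ELISA (anti-phospho-4E-BP1 IgG, HRP-tagged secondary) after capture of the His-tagged substrate on Ni-chelate plates.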
In general terms: An ELISA detects its analyte on a solid surface through an enzyme-linked reagent.
For `Cc1cc(-c2cnc(Cl)c(NS(C)(=O)=O)c2)cc2c1OCCN(c1nc(CNCC(F)F)nc(C)c1C(C)C)C2` [Compound 164, N-(2-chloro-5-{4-[2-{[(2,2-difluoroethyl)amino]methyl}-6-methyl-5-(1-methylethyl)pyrimidin-4-yl]-9-methyl-2,3,4,5-tetrahydro-1,4-benzoxazepin-7-yl}pyridin-3-yl)methanesulfonamide], the IC50 (as a rule, the concentration at which inhibition is half-maximal) is no more than 100 nM.
Next, `C=CCc1c(C)nc(N)nc1N1CCOc2c(C)cc(-c3cnc4sc(N)nc4c3)cc2C1` [Compound 51, 6-{4-(2-amino-6-methyl-5-prop-2-en-1-ylpyrimidin-4-yl)-9-methyl-2,3,4,5-tetrahydro-1,4-benzoxazepin-7-yl][1,3]thiazolo[5,4-b]pyridin-2-amine]: no more than 100 nM; `Cc1cc(-c2cnc3sc(N)nc3c2)cc2c1OCCN(c1nc(N)nc(C)c1C)C2` [Compound 7, 6-[4-(2-amino-5,6-dimethylpyrimidin-4-yl)-9-methyl-2,3,4,5-tetrahydro-1,4-benzoxazepin-7-yl][1,3]thiazolo[5,4-b]pyridin-2-amine]: 100 to 500 nM.
Take `Cc1cc(-c2cnc3sc(N)nc3c2)cc2c1OCCN(c1nc(CO)nc(C)c1C(C)C)C2` [Compound 64, {4-[7-(2-amino[1,3]thiazolo[5,4-b]pyridin-6-yl)-9-methyl-2,3-dihydro-1,4-benzoxazepin-4(5H)-yl]-6-methyl-5-(1-methylethyl)pyrimidin-2-yl}methanol]: the IC50 was no more than 100 nM.
For the compound `Cc1nc(C)c(C(C)C)c(N2CCOc3c(C)cc(-c4cnc5sc(N)nc5c4)cc3C2)n1` [Compound 104, 6-{4-[2,6-dimethyl-5-(1-methylethyl)pyrimidin-4-yl]-9-methyl-2,3,4,5-tetrahydro-1,4-benzoxazepin-7-yl}[1,3]thiazolo[5,4-b]pyridin-2-amine], the IC50 is no more than 100 nM.
Next, `Cc1cc(-c2cnc3sc(N)nc3c2)cc2c1OCCN(c1nc(C(C)O)nc(C)c1C(C)C)C2` (centres unmarked) [Compound 98, 1-{4-[7-(2-amino[1,3]thiazolo[5,4-b]pyridin-6-yl)-9-methyl-2,3-dihydro-1,4-benzoxazepin-4(5H)-yl]-6-methyl-5-(1-methylethyl)pyrimidin-2-yl}ethanol]: no more than 100 nM; `Cc1cc(-c2cnc3sc(N)nc3c2)cc2c1OCCN(c1nc(CN)nc(C)c1C(C)C)C2` [Compound 134, 6-{4-[2-(aminomethyl)-6-methyl-5-(1-methylethyl)pyrimidin-4-yl]-9-methyl-2,3,4,5-tetrahydro-1,4-benzoxazepin-7-yl}[1,3]thiazolo[5,4-b]pyridin-2-amine]: no more than 100 nM; `Cc1ncc(C(C)C)c(N2CCOc3c(C)cc(-c4nnc(N)s4)cc3C2)n1` [Compound 175, 5-{9-methyl-4-[2-methyl-5-(1-methylethyl)pyrimidin-4-yl]-2,3,4,5-tetrahydro-1,4-benzoxazepin-7-yl}-1,3,4-thiadiazol-2-amine]: no more than 100 nM.
With `Cc1cc(-c2cnc(Cl)c(NS(C)(=O)=O)c2)cc2c1OCCN(c1nc(N)nc(C)c1C(C)C)C2` [Compound 6, N-(5-{4-[2-amino-6-methyl-5-(1-methylethyl)pyrimidin-4-yl]-9-methyl-2,3,4,5-tetrahydro-1,4-benzoxazepin-7-yl}-2-chloropyridin-3-yl)methanesulfonamide], the IC50 is no more than 100 nM.
Consider `CCc1nc(CN(C)C)nc(N2CCOc3c(C)cc(-c4cnc5sc(N)nc5c4)cc3C2)c1CC` [Compound 85, 6-(4-{2-[(dimethylamino)methyl]-5,6-diethylpyrimidin-4-yl}-9-methyl-2,3,4,5-tetrahydro-1,4-benzoxazepin-7-yl)[1,3]thiazolo[5,4-b]pyridin-2-amine], for which the IC50 is no more than 100 nM.
With `Cc1cc(-c2cnc3sc(N)nc3c2)cc2c1OCCN(c1nc(C(F)F)nc(C)c1C(C)C)C2` [Compound 144, 6-{4-[2-(difluoromethyl)-6-methyl-5-(1-methylethyl)pyrimidin-4-yl]-9-methyl-2,3,4,5-tetrahydro-1,4-benzoxazepin-7-yl}[1,3]thiazolo[5,4-b]pyridin-2-amine], the IC50 was no more than 100 nM.
As to `Cc1cc(-c2ccncc2)cc2c1OCCN(c1nc(N)nc(C)c1C(C)C)C2` [Compound 75], the IC50 fell in the range of 100 to 500 nM.
On to `Cc1cc(-c2cnc3sc(N)nc3c2)cc2c1OCCN(c1nc(CN(C)CCF)nc(C)c1C(C)C)C2` [Compound 156, 6-{4-[2-{[(2-fluoroethyl)(methyl)amino]methyl}-6-methyl-5-(1-methylethyl)pyrimidin-4-yl]-9-methyl-2,3,4,5-tetrahydro-1,4-benzoxazepin-7-yl}[1,3]thiazolo[5,4-b]pyridin-2-amine], for which the IC50 is no more than 100 nM.
As to `Cc1cc(-c2cnc3sc(N)nc3c2)cc2c1OCCN(c1nccnc1C#N)C2` [Compound 34, 3-[7-(2-amino[1,3]thiazolo[5,4-b]pyridin-6-yl)-9-methyl-2,3-dihydro-1,4-benzoxazepin-4(5H)-yl]pyrazine-2-carbonitrile], the IC50 is no more than 100 nM.
As for `C#Cc1c(C)nc(N)nc1N1CCOc2c(C)cc(-c3cnc4sc(N)nc4c3)cc2C1` [Compound 145, 6-[4-(2-amino-5-ethynyl-6-methylpyrimidin-4-yl)-9-methyl-2,3,4,5-tetrahydro-1,4-benzoxazepin-7-yl][1,3]thiazolo[5,4-b]pyridin-2-amine], the half-maximal inhibitory concentration (IC50) is no more than 100 nM.
Turning to `COCC(C)c1c(C)nc(C)nc1N1CCOc2c(C)cc(-c3cnc4sc(N)nc4c3)cc2C1` (centres unmarked) [Compound 153, 6-(4-{2,6-dimethyl-5-[1-methyl-2-(methyloxy)ethyl]pyrimidin-4-yl}-9-methyl-2,3,4,5-tetrahydro-1,4-benzoxazepin-7-yl)[1,3]thiazolo[5,4-b]pyridin-2-amine], the half-inhibitory concentration (IC50) is no more than 100 nM.
On to `Cc1cc(-c2cnc3sc(N)nc3c2)cc2c1OCCN(c1nc(N)nc(Cl)c1C(C)C)C2` [Compound 62, 6-{4-[2-amino-6-chloro-5-(1-methylethyl)pyrimidin-4-yl]-9-methyl-2,3,4,5-tetrahydro-1,4-benzoxazepin-7-yl}[1,3]thiazolo[5,4-b]pyridin-2-amine], for which the IC50 is no more than 100 nM.
Next, `Cc1cc(-c2nnc(N)s2)cc2c1OCCN(c1nc(CNCC(F)F)nc(C)c1C(C)C)C2` [Compound 169, 5-{4-[2-{[(2,2-difluoroethyl)amino]methyl}-6-methyl-5-(1-methylethyl)pyrimidin-4-yl]-9-methyl-2,3,4,5-tetrahydro-1,4-benzoxazepin-7-yl}-1,3,4-thiadiazol-2-amine]: no more than 100 nM; `COc1nc(C)c(C(C)C)c(N2CCOc3c(C)cc(-c4cnc5sc(N)nc5c4)cc3C2)n1` [Compound 152, 6-{9-methyl-4-[6-methyl-5-(1-methylethyl)-2-(methyloxy)pyrimidin-4-yl]-2,3,4,5-tetrahydro-1,4-benzoxazepin-7-yl}[1,3]thiazolo[5,4-b]pyridin-2-amine]: no more than 100 nM.
Then `CCN(Cc1nc(C)c(C(C)C)c(N2CCOc3c(C)cc(-c4cnc5nc[nH]c5c4)cc3C2)n1)CC(F)F` [Compound 171, N-ethyl-2,2-difluoro-N-({4-[7-(1H-imidazo[4,5-b]pyridin-6-yl)-9-methyl-2,3-dihydro-1,4-benzoxazepin-4(5H)-yl]-6-methyl-5-(1-methylethyl)pyrimidin-2-yl}methyl)ethanamine], with 100 to 500 nM.
